Source: ChEMBL document CHEMBL4382254, “Design, synthesis, structure-activity relationships and mechanism of action of new quinoline derivatives as potential antitumor agents” (Eur J Med Chem, 2019)
pIC50: −log10 of the molar value. Calls of active or inactive are those of the source. The rule behind the calls is not given here.

Columns and labels:
HCT-116 [1] = assay: Inhibition of colony formation in human HCT116 cells after 24 hrs by crystal violet staining based assay; type: functional, cell-based
HCT-116 [2] = assay: Induction of apoptosis in human HCT116 cells assessed as viable cells at 2.5 uM after 24 hrs by Annexin V-FITC/propidium iodide staining based flow cytometry (reference value: 87.19%); type: functional; conditions: HCT-116, 24 h, read-out: Activity
HCT-116 [3] = assay: Cytotoxicity against human HCT116 cells assessed as reduction in cell viability at 5 uM incubated for 24 hrs followed by compound washout by CCK8 assay; type: functional, cell-based; conditions: TDE = time-dependent effect
HCT-116 [4] = assay: Induction of apoptosis in Bax-deficient human HCT116 cells assessed as early apoptotic cells at 5 uM after 24 hrs by Annexin V-FITC/propidium iodide staining based flow cytometry (reference value: 8.01%); type: functional
HCT-116 [5] = assay: Induction of apoptosis in human HCT116 cells assessed as early apoptotic cells at 2.5 uM after 24 hrs by Annexin V-FITC/propidium iodide staining based flow cytometry (reference value: 3.32%); type: functional
HCT-116 [6] = assay: Induction of apoptosis in human HCT116 cells assessed as increase in cleaved PARP level after 24 hrs in presence of pan-caspase inhibitor z-VAD-FMK by immunoblot analysis; type: functional, cell-based
HCT-116 [7] = assay: Induction of apoptosis in P53-deficient human HCT116 cells assessed as increase in p21 expression at 2.5 to 20 uM after 24 hrs by immunoblot analysis; type: functional, cell-based
RKO = assay: Inhibition of colony formation in human RKO cells after 24 hrs by crystal violet staining based assay; type: functional, cell-based
HCT-116 [8] = assay: Induction of apoptosis in human HCT116 cells assessed as change in P53 expression at 2.5 to 20 uM after 24 hrs by immunoblot analysis; type: functional, cell-based
HCT-116 [9] = assay: Induction of apoptosis in human HCT116 cells assessed as late apoptotic cells at 5 uM after 24 hrs by Annexin V-FITC/propidium iodide staining based flow cytometry (reference value: 6.08 to 11.92%); type: functional
HCT-116 [10] = assay: Induction of apoptosis in human HCT116 cells assessed as decrease in pro-caspase9 level at 2.5 to 10 uM after 24 hrs by immunoblot analysis; type: functional, cell-based
DLD-1 [11] = assay: Cytotoxicity against human DLD1 cells assessed as reduction in cell viability at 5 uM incubated for 24 hrs followed by compound washout by CCK8 assay; type: functional, cell-based; conditions: TDE = time-dependent effect
HCT-116 [12] = assay: Cell cycle arrest in human HCT116 cells assessed as accumulation at G0/G1 phase at 5 uM after 48 hrs by propidium iodide staining based flow cytometry (reference value: 82.16%); type: functional
HCT-116 [13] = assay: Induction of apoptosis in P53-deficient human HCT116 cells assessed as late apoptotic cells at 5 uM after 24 hrs by Annexin V-FITC/propidium iodide staining based flow cytometry (reference value: 34.09%); type: functional
[14] = target: Cellular tumor antigen p53 (Homo sapiens) (UniProt P04637); assay: Activation of P53 in human HCT116 cells assessed as decrease in PARP expression at 2.5 to 20 uM after 24 hrs by immunoblot analysis; type: cell-based
HCT-116 [15] = assay: Induction of apoptosis in human HCT116 cells assessed as increase in cleaved PARP level at 2.5 to 10 uM after 24 hrs by immunoblot analysis; type: functional, cell-based
HCT-116 [16] = assay: Cell cycle arrest in human HCT116 cells assessed as accumulation at G2/M phase at 5 uM after 24 hrs by propidium iodide staining based flow cytometry (reference value: 16.3%); type: functional
BGC-823 = assay: Cytotoxicity against human BGC823 cells after 48 hrs by MTT assay; type: functional, cell-based; conditions: BGC-823, 48 h
HCT-116 [17] = assay: Induction of apoptosis in human HCT116 cells assessed as increase in late apoptotic cells after 24 hrs by Annexin V-FITC/propidium iodide staining based flow cytometry; type: functional, cell-based
HCT-116 [18] = assay: Induction of apoptosis in P53-deficient human HCT116 cells assessed as necrotic cells at 5 uM after 24 hrs by Annexin V-FITC/propidium iodide staining based flow cytometry (reference value: 4.45%); type: functional
HCT-116 [19] = assay: Cytotoxicity against Bax-deficient human HCT116 cells assessed as reduction in cell viability measured after 24 hrs by CCK8 assay; type: functional, cell-based; conditions: HCT-116, 24 h
HCT-116 [20] = assay: Induction of apoptosis in human HCT116 cells assessed as early apoptotic cells at 2.5 to 5 uM after 24 hrs in presence of pan-caspase inhibitor z-VAD-FMK by Annexin V-FITC/propidium iodide staining based flow cytometry (reference value: 2.5%); type: functional
HCT-116 [21] = assay: Induction of apoptosis in P53-deficient human HCT116 cells assessed as viable cells at 5 uM after 24 hrs by Annexin V-FITC/propidium iodide staining based flow cytometry (reference value: 75.5%); type: functional; conditions: HCT-116, 24 h, read-out: Activity
HCT-116 [22] = assay: Induction of apoptosis in human HCT116 cells assessed as viable cells at 5 uM after 24 hrs by Annexin V-FITC/propidium iodide staining based flow cytometry (reference value: 73.26 to 87.19%); type: functional; conditions: HCT-116, 24 h, read-out: Activity
HCT-116 [23] = assay: Induction of apoptosis in P53-deficient human HCT116 cells assessed as increase in Bax expression at 2.5 to 20 uM after 24 hrs by immunoblot analysis; type: functional, cell-based
[24] = target: Cellular tumor antigen p53 (Homo sapiens) (UniProt P04637); assay: Activation of P53 in human HCT116 cells assessed as increase in p21 expression at 2.5 to 20 uM after 24 hrs by immunoblot analysis; type: cell-based
HCT-116 [25] = assay: Inhibition of colony formation in Bax-deficient human HCT116 cells after 24 hrs by crystal violet staining based assay; type: functional, cell-based
HCT-116 [26] = assay: Cell cycle arrest in human HCT116 cells assessed as accumulation at G2/M phase at 5 uM after 48 hrs by propidium iodide staining based flow cytometry (reference value: 11.24%); type: functional
FHC = assay: Cytotoxicity against human FHC cells assessed as reduction in cell viability at 5 uM incubated for 24 hrs by CCK8 assay; type: cell-based
[27] = Solubility of the compound in water; type: physicochemical
HCT-116 [28] = assay: Cytotoxicity against P53-deficient human HCT116 cells assessed as reduction in cell viability measured after 24 hrs by CCK8 assay; type: functional, cell-based; conditions: HCT-116, 24 h
HCT-116 [29] = assay: Induction of apoptosis in human HCT116 cells assessed as necrotic cells at 2.5 to 5 uM after 24 hrs in presence of pan-caspase inhibitor z-VAD-FMK by Annexin V-FITC/propidium iodide staining based flow cytometry (reference value: 1.83%); type: functional
DLD-1 [30] = assay: Induction of morphological changes in human DLD1 cells assessed as reduction in cell number at 5 to 10 uM after 24 hrs by phase contrast microscopic analysis; type: functional, cell-based
HCT-116 [31] = assay: Cell cycle arrest in human HCT116 cells assessed as accumulation at G0/G1 phase at 5 uM after 24 hrs by propidium iodide staining based flow cytometry (reference value: 77.78%); type: functional
HCT-116 [32] = assay: Induction of autophagy in human HCT116 cells expressing GFP-LC3 assessed as increase in LC3 puncta formation at 10 uM after 24 hrs by fluorescence microscopic analysis; type: functional, cell-based
[33] = target: Cellular tumor antigen p53 (Homo sapiens) (UniProt P04637); assay: Induction of P53 phosphorylation at Ser392 residue in human HCT116 cells after 15 to 90 mins by immunoblot analysis; type: cell-based
DLD-1 [34] = assay: Inhibition of colony formation in human DLD1 cells after 24 hrs by crystal violet staining based assay; type: functional, cell-based

Cellular tumor antigen p53 (Homo sapiens), sequence (P04637 whole entry, looked up): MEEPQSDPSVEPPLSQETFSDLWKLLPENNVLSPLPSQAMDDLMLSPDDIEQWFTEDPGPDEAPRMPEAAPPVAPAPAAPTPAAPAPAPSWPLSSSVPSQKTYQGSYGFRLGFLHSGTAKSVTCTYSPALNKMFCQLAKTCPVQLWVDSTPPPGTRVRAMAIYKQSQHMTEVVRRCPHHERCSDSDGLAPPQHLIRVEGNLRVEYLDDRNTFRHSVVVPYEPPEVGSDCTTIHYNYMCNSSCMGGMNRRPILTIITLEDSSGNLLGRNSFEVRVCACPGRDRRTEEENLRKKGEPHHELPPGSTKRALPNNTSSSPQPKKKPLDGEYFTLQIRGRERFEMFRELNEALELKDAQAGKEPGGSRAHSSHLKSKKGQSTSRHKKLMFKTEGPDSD

SMILES: CN(C)CCNc1ccnc2cc(OCc3ccc(F)cc3)ccc12
- inhibition (HCT-116 [1]): Dose-dependent effect
- viability at 2.5 µM (HCT-116 [2]): 78.1%
- Activity (HCT-116 [3]): Tde
- Activity (HCT-116 [4]): 24.16%
- Activity (HCT-116 [5]): 4.94%
- Activity (HCT-116 [6]): inactive
- Activity (HCT-116 [7]): inactive
- inhibition (RKO): Dose-dependent effect
- Activity (HCT-116 [8]): inactive
- Activity (HCT-116 [9]): 17.49 - 17.54%
- Activity (HCT-116 [10]): Active
- Activity (DLD-1 [11]): Tde
- Activity (HCT-116 [12]): 83.72%
- Activity (HCT-116 [13]): 14.05%
- Activity [14]: Active
- Activity (HCT-116 [15]): Active
- Activity (HCT-116 [16]): 12.94%
- pIC50 (BGC-823): 6.05
- Activity (HCT-116 [17]): Dose-dependent effect
- Activity (HCT-116 [18]): 4.45%
- pIC50 (HCT-116 [19]): 4.51
- Activity (HCT-116 [20]): 3.15%
- viability at 5 µM (HCT-116 [21]): 76.3%
- viability at 5 µM (HCT-116 [22]): 52.5 to 69.1%
- Activity (HCT-116 [23]): inactive
- Activity [24]: Active
- inhibition (HCT-116 [25]): inactive
- Activity (HCT-116 [26]): 8.88%
- Activity (FHC): Non-Toxic
- solubility [27]: > 10000 µg/mL
- pIC50 (HCT-116 [28]): 4.74
- Activity (HCT-116 [29]): 2.65%
- Activity (DLD-1 [30]): Active
- Activity (HCT-116 [31]): 82.21%
- Activity (HCT-116 [32]): inactive
- Activity [33]: Active
- inhibition (DLD-1 [34]): Dose-dependent effect
